target: T1, human SSAO (Homo sapiens, UniProt Q16853); assay: SSAO enzyme inhibition assay (benzylamine substrate; HRP-coupled hydrogen peroxide detection or 14C-benzaldehyde detection); assay type: biochemical; conditions: purified recombinantly expressed human SSAO, benzylamine as substrate, r.t.; read-out: SSAO inhibitory activity IC50
T1 construct: made in house
T1 sequence (Q16853 29-763 limits assumed): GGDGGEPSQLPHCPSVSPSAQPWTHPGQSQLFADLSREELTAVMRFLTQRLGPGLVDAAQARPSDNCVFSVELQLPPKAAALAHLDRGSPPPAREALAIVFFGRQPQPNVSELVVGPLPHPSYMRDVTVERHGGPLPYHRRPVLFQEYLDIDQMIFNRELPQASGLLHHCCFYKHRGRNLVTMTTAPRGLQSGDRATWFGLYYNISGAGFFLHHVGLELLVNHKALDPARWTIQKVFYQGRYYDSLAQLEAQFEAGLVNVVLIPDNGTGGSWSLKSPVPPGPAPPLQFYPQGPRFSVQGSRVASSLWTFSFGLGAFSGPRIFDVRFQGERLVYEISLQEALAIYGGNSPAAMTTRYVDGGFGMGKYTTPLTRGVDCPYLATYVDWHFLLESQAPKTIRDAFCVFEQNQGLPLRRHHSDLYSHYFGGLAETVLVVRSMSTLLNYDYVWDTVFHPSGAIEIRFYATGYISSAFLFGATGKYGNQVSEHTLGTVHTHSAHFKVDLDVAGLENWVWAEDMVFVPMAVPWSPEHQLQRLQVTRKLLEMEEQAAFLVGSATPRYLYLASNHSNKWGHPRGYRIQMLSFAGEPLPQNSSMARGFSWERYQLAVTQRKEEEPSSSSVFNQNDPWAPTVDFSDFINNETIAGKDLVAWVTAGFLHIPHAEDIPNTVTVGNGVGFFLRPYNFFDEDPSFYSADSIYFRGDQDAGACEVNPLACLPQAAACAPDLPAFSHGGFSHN
In short: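 Purified recombinant human SSAO, pre-incubated ~15 min at r.t. with compound, then benzylamine added; final DMSO ≦2%. HRP-coupled Amplex format in 50 mM sodium phosphate pH 7.4: enzyme 1 μg/ml, benzylamine 100 μM (≈Km), fluorescence over 1-2 h; 14C format: enzyme 10 μg/ml, benzylamine 40 μM, 1 h. IC50 from four-parameter fit.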

Compound | IC50 [nM]
Clc1ccc(-n2cc(C3CCOCC3)c3ccncc32)nc1 [Compound 103, 5-Chloro-2-[3-(oxan-4-yl)-1H-pyrrolo[2,3-c]pyridin-1-yl]pyridine] | 100 to 500
NCCOC(=O)N1CCC(c2cn(-c3ccc(Cl)cc3)c3cnccc23)CC1 [Compound 106, 2-Aminoethyl 4-[1-(4-chlorophenyl)-1H-pyrrolo[2,3-c]pyridin-3-yl]piperidine-1-carboxylate] | < 100
Cc1ccc(-n2c(C)c(C3=CCOCC3)c3ccncc32)cc1 [Compound 107, 3-(3,6-Dihydro-2H-pyran-4-yl)-2-methyl-1-(4-methylphenyl)-1H-pyrrolo[2,3-c]pyridine] | < 100

More lines, now with the values ahead:

IC50 [nM] | Compound
< 100 | Clc1ccc(-n2cc(N3CCOCC3)c3ccncc32)cc1 [Compound 104, 4-[1-(4-Chlorophenyl)-1H-pyrrolo[2,3-c]pyridin-3-yl]morpholine 2,2,2-trifluoroacetic acid]
< 100 | NCCCC(=O)N1CCC(c2cn(-c3ccc(Cl)cc3)c3cnccc23)CC1 [Compound 105, 2,2,2-Trifluoroacetic acid; 4-amino-1-{4-[1-(4-chlorophenyl)-1H-pyrrolo[2,3-c]pyridin-3-yl]piperidin-1-yl}butan-1-one]

Source: patent US9227967B2, “Inhibitor compounds of semicarbazide-sensitive amine oxidases” (Proximagen Limited, priority 2010, dated 2016)
